Assay results taken from patent US8080582B2, “Derivatives of 8-epiblechnic acid and their effects on down-regulation of endothelin (ETA) receptor mRNA” (ScinoPharm Taiwan Ltd., priority 2008, dated 2011).

Assays:
Type in all cases: cell-based
[1] = MTT cell viability, nasopharyngeal cancer cells; conditions: human, Hone-1 nasopharyngeal cancer cells, 48 hrs, MTT
Experimental: (§1) The cells (1×10^5 cells/well in 24-well plates) were cultured for 24 hrs. Different concentrations of Sal-B and its analogs (0, 50, 100, 150, 200, 250 μg/ml) were added to treat the cells. After treating for 48 hrs, 100 μl MTT solution was added to each well, and the plate was placed in an incubator for 1-4 hrs. After adding 400 μl DMSO to treat the cells for 30 min., 200 μl samples were collected and placed in a 96-well plate to conduct the absorption measurement at 550 nm.
(§2) Cancer cells were treated with Sal-B and EBA at concentrations of 0, 0.1, 0.2, 0.3, 0.4, 0.5 mM. After treating for 48 hrs, MTT was added, and then allowed to react for 3 hrs at 37° C. After that, DMSO was added and allowed to react for 30 min., the OD570 absorption values were measured. Cell viability was above 80% when nasopharyngeal cancer cells (Hone-1) were treated with […] Sal-B and EBA. […] But the cell viability remained above 70% for treating with 0.1 mM and 0.2 mM EBA. Similar results were obtained when prostate cancer cells (PC-3) were treated with the drugs: Cell viability was above 80% for treating PC-3 cells with 0.2 mM Sal-B or EBA.

[2] = tested on: nasopharyngeal cancer cells (Hone-1); assay: MTT cell viability, nasopharyngeal cancer cells; conditions: Hone-1 cells, summary statement
Experimental: as §1, §2

[3] = tested on: endothelin receptor mRNA expression; assay: PCR of endothelin receptor mRNA expression in vascular smooth muscle cells; conditions: 100 μg/ml, 48 hrs, PCR 25 or 30 reaction cycles
Experimental: Extraction of cellular RNA: Subculturing smooth muscle cells to 100-mm culture dishes. After the cells had filled the culture dishes, Sal-B and its analogs were added to treat the cells for 48 hrs. After that, 1×PBS solutions were added to wash the cells three times. After adding 1 ml TRIzol, the cells were scraped off and placed in 1.5 ml micro-centrifuge tubes. Following the addition of 0.2 ml chloroform to each tube, the tubes were shaken, left at room temperature for 3 min., and run in a centrifuge at 12,000 rpm for 15 min. The supernatant liquid was removed and the cells placed in new micro-centrifuge tubes. After adding an amount of isopropyl alcohol equivalent to one-half of the volume of the supernatant liquid, and mixing until homogeneous, the samples were allowed to stand at room temperature for 10 min. The supernatant liquid was removed after centrifugation at 12,000 rpm for 10 min. 1 ml 70% alcohol was added to wash out salts, followed by centrifugation for 5 min. and removal of supernatant liquid. The samples were dissolved in 50 μl DEPC-H2O after drying.
(1) cDNA synthesis: 1 μl Random hexamer primer (20 μM) and 1 μl dNTP(10 mm) were added to 3 μg RNA, which was allowed to react at 65° C. for 5 min., and then placed on ice promptly. […]

[4] = MTT cell viability, prostate cancer cells; conditions: human, PC-3 prostate cancer cells; PC-3, 0.2 mM, 48 hrs, MTT
Experimental: as §1, §2
MTT testing was employed to observe the viability of cancer cells after treating with Sal-B and the six synthetic analogs.

[5] = MTT cell viability / observation of normal vascular smooth muscle cells (A10); conditions: rat, A10 cells, drug concentration 0.2 mM, MTT
Experimental: as §1
(§3) Cell viability testing (MTT testing) was employed to determine the cytotoxicity of Sal-B and EBA to vascular smooth muscle cells. Vascular smooth muscle cells (cell line A10) were treated with Sal-B and EBA at concentrations of 0, 0.1, 0.2, 0.3, 0.4, and 0.5 mM. After treating for 48 hrs, MTT was added and allowed to react for 3 hrs at 37° C. Then, DMSO was added and allowed to react for 30 min., after that, the OD570 absorption values were measured. Cell viability was still 90% when the drug concentration reached 0.2 mM.
(§4) Sal-B's analogs, compounds A to F, were dissolved in DMSO, and then added to A10 cells to observe the results.

[6] = tested on: Vascular smooth muscle cells (cell line A10); assay: as above; conditions: A10 cells, drug concentration 0.2 mM, 48 hrs, MTT
Experimental: as §1, §3, §4

Compound: O=C(/C=C/c1ccc(O)c2c1[C@H](C(=O)O[C@H](Cc1ccc(O)c(O)c1)C(=O)[O-])[C@@H](c1ccc(O)c(O)c1)O2)O[C@H](Cc1ccc(O)c(O)c1)C(=O)[O-].[Mg+2] [Sal-B, magnesium lithospermate B]
- viability at 48 h, 0.05 mM ([1]; Hone-1, 0.05 mM): > 80%
- viability at 48 h ([1]; Hone-1, 0.1 mM and 0.2 mM): ~60%
- Inhibition of growth of Hone-1 cells [2]: significantly inhibit the growth
- Endothelin receptor mRNA expression compared with control [3]: reduced as comparing with the control
- viability at 48 h, 0.2 mM [4]: > 80%
- viability at 48 h, 0.2 mM [5]: 90%

Compound: epiblechnic acid [EBA]
- Endothelin receptor mRNA expression compared with control [3]: reduced as comparing with the control
- Cell viability [6]: 90%
